Assay results reported in patent US5013743A, “Selective antibacterial agent against campytobacter” (Takeda Chemical Industries, Ltd., priority 1989, dated 1991).
In brackets after ≈: the same amount, converted by molar mass.

Assays:
[1] = test system: C. pylori PCL 56; experiment: MIC, agar-plate dilution method, test strain C; format: cell-based; conditions: Helicobacter pylori, PCL56, 72 h, Brucella agar, 37° C., 3 days
Method: The minimum inhibitory concentration (MIC) of each compound was determined by the agar-plate dilution method based on the standard method advocated by Japan Society of Chemotherapy [cf: Chemotherapy, Jan. '81, p. 76]. The volume of agar medium per plate was 20 ml. Each of the test compounds was dissolved in dimethylsulfoxide at a concentration of 80 mg/ml or 40 mg/ml, and diluted 10 times with sterile distilled water. Furthermore, the aqueous solution of 8 mg/ml or 4 mg/ml was diluted serially 2-fold with sterile distilled water. To 2 ml of the diluted solution was added 18 ml of Brucella agar (BBL Microbiology Systems, Becton Dickinson and Co., Cockeysville, Md. 21030) containing 7% defibrinated horse blood (manufactured by Nippon Bio-supp. Center) and mixed well. Test strains frozen at -80° C. in Brucella broth (BBL) containing 10% horse serum were thawed and inoculated on a Brucella agar slant medium containing 7% defibrinated horse blood. The medium was incubated anaerobically at 37° C. for 3 days in a jar containing a piece of sponge sufficiently impregnated with water and Campy Pak™ (BBL). The organisms grown on the slant medium were collected and suspended in a Brucella broth to correspond to the turbidity of about 10^8 CFU/ml of common bacteria. One platinum loop of inoculum was streaked on the medium plates for determination. The plates were incubated under the same conditions as described above. […] The results are shown in Table 2 and Table 3. | C: C. pylori PCL 56

[2] = test system: C. pylori CLO 1; experiment: MIC, agar-plate dilution method, test strain F; format: cell-based; conditions: Helicobacter pylori, CLO1, 72 h, Brucella agar, 37° C., 3 days
Method: (§1) The minimum inhibitory concentration (MIC) of each compound was determined by the agar-plate dilution method based on the standard method advocated by Japan Society of Chemotherapy [cf: Chemotherapy, Jan. '81, p. 76]. The volume of agar medium per plate was 20 ml. Each of the test compounds was dissolved in dimethylsulfoxide at a concentration of 80 mg/ml or 40 mg/ml, and diluted 10 times with sterile distilled water. Furthermore, the aqueous solution of 8 mg/ml or 4 mg/ml was diluted serially 2-fold with sterile distilled water. To 2 ml of the diluted solution was added 18 ml of Brucella agar (BBL Microbiology Systems, Becton Dickinson and Co., Cockeysville, Md. 21030) containing 7% defibrinated horse blood (manufactured by Nippon Bio-supp. Center) and mixed well. Test strains frozen at -80° C. in Brucella broth (BBL) containing 10% horse serum were thawed and inoculated on a Brucella agar slant medium containing 7% defibrinated horse blood. The medium was incubated anaerobically at 37° C. for 3 days in a jar containing a piece of sponge sufficiently impregnated with water and Campy Pak™ (BBL). The organisms grown on the slant medium were collected and suspended in a Brucella broth to correspond to the turbidity of about 10^8 CFU/ml of common bacteria. One platinum loop of inoculum was streaked on the medium plates for determination. The plates were incubated under the same conditions as described above.

[3] = test system: C. pylori NCTC 11637; experiment: MIC, agar-plate dilution method, test strain B; format: cell-based; conditions: Helicobacter pylori, NCTC11637, 72 h, Brucella agar, 37° C., 3 days
Method: as §1

[4] = test system: C. pylori CLO 6; experiment: MIC, agar-plate dilution method, test strain G; format: cell-based; conditions: Helicobacter pylori, CLO6, 72 h, Brucella agar, 37° C., 3 days
Method: as §1

[5] = test system: genus Campylobacter; experiment: Antibacterial activity against the genus Campylobacter (Tables 2 and 3, summary in words); format: cell-based, Campylobacter pylori; conditions: fluorinated alkyl derivatives vs other derivatives, Table 2 and Table 3
Method: as §1

[6] = test system: C. pylori CPY 00111; experiment: MIC, agar-plate dilution method, test strain D; format: cell-based; conditions: Helicobacter pylori, CPY00111, 72 h, Brucella agar, 37° C., 3 days
Method: as §1

[7] = test system: C. pylori KS 13; experiment: MIC, agar-plate dilution method, test strain E; format: cell-based; conditions: Helicobacter pylori, KS13, 72 h, Brucella agar, 37° C., 3 days
Method: as §1

[8] = test system: C. pylori NCTC 11916; experiment: MIC, agar-plate dilution method, test strain A; format: cell-based; conditions: Helicobacter pylori, NCTC11916, 72 h, Brucella agar, 37° C., 3 days
Method: as §1

Cc1c(OCC(F)(F)C(F)(F)F)ccnc1C[S+]([O-])c1nc2ccccc2[nH]1 (stereo not shown) [Compound 3]
MIC [1]: 3.13 µg/mL (≈ 7.46 µM) | MIC [2]: 1.56 µg/mL (≈ 3.72 µM) | MIC [3]: 6.25 µg/mL (≈ 14.9 µM) | MIC [4]: 6.25 µg/mL (≈ 14.9 µM) | antibacterial activity compared with other derivatives [5]: stronger antibacterial activity | MIC [6]: 3.13 µg/mL (≈ 7.46 µM) | MIC [7]: 3.13 µg/mL (≈ 7.46 µM) | MIC [8]: 3.13 µg/mL (≈ 7.46 µM)

Cc1c(OCC(F)(F)C(F)F)ccnc1C[S+]([O-])c1nc2ccccc2[nH]1 (stereo not shown) [Compound 4]
MIC [1]: 6.25 µg/mL (≈ 15.6 µM) | MIC [2]: 0.78 µg/mL (≈ 1.94 µM) | MIC [3]: 6.25 µg/mL (≈ 15.6 µM) | MIC [4]: 6.25 µg/mL (≈ 15.6 µM) | antibacterial activity compared with other derivatives [5]: stronger antibacterial activity | MIC [6]: 1.56 µg/mL (≈ 3.89 µM) | MIC [7]: 1.56 µg/mL (≈ 3.89 µM) | MIC [8]: 1.56 µg/mL (≈ 3.89 µM)

CC(C)COc1ccnc(CSc2nc3ccccc3[nH]2)c1 [Compound 7]
MIC [1]: 12.5 µg/mL (≈ 39.9 µM) | MIC [2]: 12.5 µg/mL (≈ 39.9 µM) | MIC [3]: 12.5 µg/mL (≈ 39.9 µM) | MIC [4]: 12.5 µg/mL (≈ 39.9 µM) | MIC [6]: 12.5 µg/mL (≈ 39.9 µM) | MIC [7]: 12.5 µg/mL (≈ 39.9 µM) | MIC [8]: 12.5 µg/mL (≈ 39.9 µM)

CC(C)COc1ccnc(CSc2nc3cc(C(F)(F)F)ccc3[nH]2)c1 [Compound 8]
MIC [1]: 12.5 µg/mL (≈ 32.8 µM) | MIC [2]: 12.5 µg/mL (≈ 32.8 µM) | MIC [3]: 12.5 µg/mL (≈ 32.8 µM) | MIC [4]: 12.5 µg/mL (≈ 32.8 µM) | MIC [6]: 12.5 µg/mL (≈ 32.8 µM) | MIC [7]: 12.5 µg/mL (≈ 32.8 µM) | MIC [8]: 12.5 µg/mL (≈ 32.8 µM)

CC(C)Oc1ccnc(CSc2nc3cc(C(F)(F)F)ccc3[nH]2)c1 [Compound 9]
MIC [1]: 12.5 µg/mL (≈ 34 µM) | MIC [2]: 12.5 µg/mL (≈ 34 µM) | MIC [3]: 12.5 µg/mL (≈ 34 µM) | MIC [4]: 12.5 µg/mL (≈ 34 µM) | MIC [6]: 12.5 µg/mL (≈ 34 µM) | MIC [7]: 12.5 µg/mL (≈ 34 µM) | MIC [8]: 12.5 µg/mL (≈ 34 µM)

C=CCOc1ccnc(CSc2nc3cc(C(F)(F)F)ccc3[nH]2)c1 [Compound 10]
MIC [1]: 25 µg/mL (≈ 68.4 µM) | MIC [2]: 25 µg/mL (≈ 68.4 µM) | MIC [3]: 25 µg/mL (≈ 68.4 µM) | MIC [4]: 25 µg/mL (≈ 68.4 µM) | MIC [6]: 25 µg/mL (≈ 68.4 µM) | MIC [7]: 25 µg/mL (≈ 68.4 µM) | MIC [8]: 25 µg/mL (≈ 68.4 µM)

C#CCOc1ccnc(CSc2nc3cc(C(F)(F)F)ccc3[nH]2)c1 [Compound 11]
MIC [1]: 12.5 µg/mL (≈ 34.4 µM) | MIC [2]: 12.5 µg/mL (≈ 34.4 µM) | MIC [3]: 12.5 µg/mL (≈ 34.4 µM) | MIC [4]: 12.5 µg/mL (≈ 34.4 µM) | MIC [6]: 12.5 µg/mL (≈ 34.4 µM) | MIC [7]: 12.5 µg/mL (≈ 34.4 µM) | MIC [8]: 12.5 µg/mL (≈ 34.4 µM)

Cc1c(OCC(F)(F)C(F)F)ccnc1CSc1nc2ccccc2[nH]1 [Compound 12]
MIC [1]: 1.56 µg/mL (≈ 4.05 µM) | MIC [2]: 1.56 µg/mL (≈ 4.05 µM) | MIC [3]: 0.78 µg/mL (≈ 2.02 µM) | MIC [4]: 0.78 µg/mL (≈ 2.02 µM) | antibacterial activity compared with other derivatives [5]: stronger antibacterial activity | MIC [6]: 1.56 µg/mL (≈ 4.05 µM) | MIC [7]: 1.56 µg/mL (≈ 4.05 µM) | MIC [8]: 1.56 µg/mL (≈ 4.05 µM)

Cc1c(OCC(F)(F)C(F)(F)F)ccnc1CSc1nc2ccccc2[nH]1 [Compound 13]
MIC [1]: 1.56 µg/mL (≈ 3.87 µM) | MIC [2]: 1.56 µg/mL (≈ 3.87 µM) | MIC [3]: 1.56 µg/mL (≈ 3.87 µM) | MIC [4]: 1.56 µg/mL (≈ 3.87 µM) | antibacterial activity compared with other derivatives [5]: stronger antibacterial activity | MIC [6]: 1.56 µg/mL (≈ 3.87 µM) | MIC [7]: 1.56 µg/mL (≈ 3.87 µM) | MIC [8]: 1.56 µg/mL (≈ 3.87 µM)
